The text below walks through data of patent US10556896B2, “Crystalline forms of (3-Amino-oxetan-3-ylmethyl)-[2-(5,5-dioxo-5,6,7,9-tetrahydro-5lambda*6*-thia-8-aza-benzocyclohepten-8-yl)-6-methyl-quinazolin-4-yl]-amine” (Hoffmann-La Roche Inc., priority 2016, dated 2020).

In brackets after ≈: the same amount, converted by molar mass. Bounds are passed on as bounds.

Common to all, as to assay type: physicochemical
Data set [1] in a line: Hygroscopicity of crystal forms by dynamic vapour sorption (DVS). As to conditions: for Hygroscopicity, water sorption @80% RH: 25° C.; for Hygroscopicity (result in words): compared with Form D. Here is the method: Dynamic vapour sorption (DVS) was tested using a DVS intrinsic from SMS (Surface Measurement Systems Co. Ltd.). 20 mg compound (I) of each crystal form was placed in an aluminium sample pan and recorded the sample weight change under different humidity. The DVS method parameters were set according to Table 16, and the method was run by the machine based on such parameters. [table]

Data set [2] in a line: Chemical stability of crystal forms (storage, HPLC chemical purity). As to the method: HPLC condition is disclosed here in Table 1-1. [table] 40 mg compound (I) of crystal Forms C, E and F were stored in stability chamber with temperature and humidity controlled as 50° C. and 40° C./75% RH respectively, 40 mg compound (I) of Form B was stored at 105° C. oven. After each time point, the samples were analyzed by HPLC to check their chemical purity and compared with their initial value.

A short description of data set [3]: Equilibrium aqueous solubility in bio-relevant media (SGF, FaSSIF, FeSSIF). The conditions noted are these: for Final pH (FaSSIF) / Final pH (FeSSIF) / Final pH (SGF): after equilibration at 25° C. for 24 hours. Here is the method: Aqueous solubility was determined by suspending 10 mg compound in different bio-relevant media including SGF, FaSSIF and FeSSIF. The suspension was equilibrated at 25° C. for 24 hours then the final pH was measured. The suspension was then filtered through a 0.22 um PVDF filter into a 2-mL HPLC vial. The quantitation was conducted by HPLC (described in Example 10) with reference to a standard solution.

In the case of `Cc1ccc2nc(N3CCS(=O)(=O)c4ccccc4C3)nc(NCC3(N)COC3)c2c1` [Example 6, Form F of compound (I), (3-Amino-oxetan-3-ylmethyl)-[2-(5,5-dioxo-5,6,7,9-tetrahydro-5lambda*6*-thia-8-aza-benzocyclohepten-8-yl)-6-methyl-quinazolin-4-yl]-amine], in data set [1], the “Hygroscopicity, water sorption @80% RH” value was 0.50% water sorption @80% RH and the “Hygroscopicity (result in words)” value is “much improved hygroscopicity than Form D”. Further, in data set [2] (40° C./75% RH, 1 month), the “Chemical Purity, %” value is reported as 99.42%. The “Chemical Purity, %” value in data set [2] (50° C., 1 month) amounted to 99.43%. In addition, the “Chemical Purity, %” value in data set [2] (Initial) is reported as 99.62%. Further, in data set [3] (25° C., 24 hours), the “S, mg/mL (FaSSIF)” value worked out at 1.58 mg/mL. Moreover, in data set [3], the “Final pH (FaSSIF)” value is 4.99 and the “Final pH (SGF)” value worked out at 3.15. For the same molecule, the “S, mg/mL (FeSSIF)” value in data set [3] (FeSSIF, 25° C., 24 hours) amounted to 1.99 mg/mL. In data set [3] (FeSSIF), the “Final pH (FeSSIF)” value amounted to 5.18.
`Cc1ccc2nc(N3CCS(=O)(=O)c4ccccc4C3)nc(NCC3(N)COC3)c2c1` [Example 2, Form B of compound (I), (3-Amino-oxetan-3-ylmethyl)-[2-(5,5-dioxo-5,6,7,9-tetrahydro-5lambda*6*-thia-8-aza-benzocyclohepten-8-yl)-6-methyl-quinazolin-4-yl]-amine]: the “Chemical Purity, %” value in data set [2] (105° C., 24 hr) turned out to be 99.80%; in data set [2] (Initial), 99.81%.
`Cc1ccc2nc(N3CCS(=O)(=O)c4ccccc4C3)nc(NCC3(N)COC3)c2c1` [Example 3, Form C of compound (I), (3-Amino-oxetan-3-ylmethyl)-[2-(5,5-dioxo-5,6,7,9-tetrahydro-5lambda*6*-thia-8-aza-benzocyclohepten-8-yl)-6-methyl-quinazolin-4-yl]-amine]: in data set [1], the “Hygroscopicity, water sorption @80% RH” value came to 0.04% water sorption @80% RH and the “Hygroscopicity (result in words)” value is “much improved hygroscopicity than Form D”. Moreover, the “Chemical Purity, %” value in data set [2] (40° C./75% RH, 1 month) is 99.28%. In addition, in data set [2] (50° C., 1 month), the “Chemical Purity, %” value is 99.32%. Also, the “Chemical Purity, %” value in data set [2] (Initial) was 99.30%. In data set [3] (25° C., 24 hours), the “S, mg/mL (FaSSIF)” value is listed as 0.11 mg/mL and the “S, mg/mL (SGF)” value worked out at 3.81 mg/mL. For the same molecule, in data set [3], the “Final pH (FaSSIF)” value came to 6.63 and the “Final pH (SGF)” value came to 4.92. For the same molecule, in data set [3] (FeSSIF, 25° C., 24 hours), the “S, mg/mL (FeSSIF)” value worked out at 1.88 mg/mL. For the same molecule, the “Final pH (FeSSIF)” value in data set [3] (FeSSIF) turned out to be 5.26.
As to `Cc1ccc2nc(N3CCS(=O)(=O)c4ccccc4C3)nc(NCC3(N)COC3)c2c1` [Example 1, Form A of compound (I), (3-Amino-oxetan-3-ylmethyl)-[2-(5,5-dioxo-5,6,7,9-tetrahydro-5lambda*6*-thia-8-aza-benzocyclohepten-8-yl)-6-methyl-quinazolin-4-yl]-amine], in data set [1], the “Hygroscopicity, water sorption @80% RH” value was found to be 0.25% water sorption @80% RH and the “Hygroscopicity (result in words)” value is “much improved hygroscopicity than Form D”. For the same molecule, in data set [3] (25° C., 24 hours), the “S, mg/mL (FaSSIF)” value is recorded as 0.12 mg/mL and the “S, mg/mL (SGF)” value is on record as 2.40 mg/mL. In data set [3], the “Final pH (FaSSIF)” value came to 6.60 and the “Final pH (SGF)” value is 4.80. For the same molecule, the “S, mg/mL (FeSSIF)” value in data set [3] (FeSSIF, 25° C., 24 hours) came to 1.72 mg/mL. The “Final pH (FeSSIF)” value in data set [3] (FeSSIF) stood at 5.31.
As for `Cc1ccc2nc(N3CCS(=O)(=O)c4ccccc4C3)nc(NCC3(N)COC3)c2c1` [Example 5, Form E of compound (I), (3-Amino-oxetan-3-ylmethyl)-[2-(5,5-dioxo-5,6,7,9-tetrahydro-5lambda*6*-thia-8-aza-benzocyclohepten-8-yl)-6-methyl-quinazolin-4-yl]-amine], in data set [1], the “Hygroscopicity, water sorption @80% RH” value was determined as 1.12% water sorption @80% RH and the “Hygroscopicity (result in words)” value is recorded as “much improved hygroscopicity than Form D”. The “Chemical Purity, %” value in data set [2] (40° C./75% RH, 1 month) was 99.14%. The “Chemical Purity, %” value in data set [2] (50° C., 1 month) was 99.45%. Besides, in data set [2] (Initial), the “Chemical Purity, %” value is recorded as 99.49%. For the same molecule, in data set [3] (25° C., 24 hours), the “S, mg/mL (FaSSIF)” value stood at 0.90 mg/mL and the “S, mg/mL (SGF)” value is listed as more than 5 mg/mL. In data set [3], the “Final pH (FaSSIF)” value was determined as 5.31 and the “Final pH (SGF)” value is 4.69. Further, the solubility thermodynamic at 24 h in data set [3] (FeSSIF, 25 °C, fessif, thermodynamic from solid, FeSSIF, 25° C., 24 hours, read-out: S, mg/mL (FeSSIF)) is 2.18 mg/mL (≈ 4.96 mM). In addition, the “Final pH (FeSSIF)” value in data set [3] (FeSSIF) worked out at 5.34.
In the case of `Cc1ccc2nc(N3CCS(=O)(=O)c4ccccc4C3)nc(NCC3(N)COC3)c2c1` [Example 4, Form D of compound (I), (3-Amino-oxetan-3-ylmethyl)-[2-(5,5-dioxo-5,6,7,9-tetrahydro-5lambda*6*-thia-8-aza-benzocyclohepten-8-yl)-6-methyl-quinazolin-4-yl]-amine], in data set [1], the “Hygroscopicity, water sorption @80% RH” value was 7.52% water sorption @80% RH and the “Hygroscopicity (result in words)” value is given as “not suitable for further drug development”.
